From patent US8969325B2, “TRPV1 antagonists” (AbbVie Inc., priority 2011, dated 2015)

Columns and labels:
human TRPV1 [1] = target: T1, human TRPV1 (Homo sapiens (Human), UniProt Q8NER1); test: Capsaicin Activation Assay (intracellular Ca2+, FLIPR); format: cell-based; settings: recombinant HEK293 cells expressing hTRPV1, 50 nM capsaicin
In short: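 Stably transfected HEK293 cells expressing human TRPV1 cDNA, plated the day before in poly-D-lysine plates. Compounds serially diluted from 10 mM DMSO stocks; intracellular Ca2+ fluorescence read on FLIPR at 1 to 5 second intervals.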

human TRPV1 [2] = target: T1, human TRPV1; test: Acid Activation Assay (pH 5.0, intracellular Ca2+, FLIPR); format: cell-based; settings: percentage of the maximal pH 5.0-induced response remaining; recombinant HEK293 hTRPV1 cells; maximum concentration tested 37.5 μM
In short: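 HEK293 cells stably expressing recombinant hTRPV1, loaded with Calcium-4 dye 90-120 min at 25° C. Compounds added over a 12-point half-log range (top 37.5 μM), then pH 5.0 DPBS/MES challenge after 3 min; FLIPR peak fluorescence over baseline given as % of maximal pH 5.0 response.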

T1 sequence (Q8NER1 whole entry): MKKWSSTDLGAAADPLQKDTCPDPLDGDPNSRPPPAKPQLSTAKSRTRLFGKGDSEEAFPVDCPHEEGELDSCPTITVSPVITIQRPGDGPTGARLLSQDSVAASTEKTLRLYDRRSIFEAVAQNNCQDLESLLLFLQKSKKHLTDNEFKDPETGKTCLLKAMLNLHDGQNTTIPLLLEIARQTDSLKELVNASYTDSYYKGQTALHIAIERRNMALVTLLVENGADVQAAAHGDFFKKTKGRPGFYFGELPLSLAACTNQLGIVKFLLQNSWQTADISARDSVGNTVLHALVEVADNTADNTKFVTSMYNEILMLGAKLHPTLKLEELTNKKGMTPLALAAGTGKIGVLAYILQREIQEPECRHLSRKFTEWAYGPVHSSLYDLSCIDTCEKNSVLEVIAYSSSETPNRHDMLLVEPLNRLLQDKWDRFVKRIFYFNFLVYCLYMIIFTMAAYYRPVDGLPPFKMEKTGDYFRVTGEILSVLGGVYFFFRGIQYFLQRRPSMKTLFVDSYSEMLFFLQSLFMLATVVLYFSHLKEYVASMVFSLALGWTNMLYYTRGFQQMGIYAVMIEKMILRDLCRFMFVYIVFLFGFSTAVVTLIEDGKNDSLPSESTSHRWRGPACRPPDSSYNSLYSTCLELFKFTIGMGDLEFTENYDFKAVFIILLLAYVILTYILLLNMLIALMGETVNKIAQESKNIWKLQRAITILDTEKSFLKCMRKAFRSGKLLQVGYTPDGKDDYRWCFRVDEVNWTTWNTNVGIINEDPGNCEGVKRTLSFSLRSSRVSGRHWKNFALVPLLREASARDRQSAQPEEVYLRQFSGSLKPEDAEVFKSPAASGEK

IC50 (human TRPV1 [1]) [nM]	human TRPV1 H^+ (max % remain) (human TRPV1 [2]) [%]	SMILES
90	21	CN1Cc2ccc(NC(=O)N[C@@H]3CCOc4c3cccc4C(F)(F)F)cc2NC1=O [Example 200, 1-(3-methyl-2-oxo-1,2,3,4-tetrahydroquinazolin-7-yl)-3-[(4R)-8-(trifluoromethyl)-3,4-dihydro-2H-chromen-4-yl]urea]
130	45	CN1Cc2ccc(NC(=O)N[C@@H]3CCOc4cc(C(F)(F)F)ccc43)cc2NC1=O [Example 201, 1-(3-methyl-2-oxo-1,2,3,4-tetrahydroquinazolin-7-yl)-3-[(4R)-7-(trifluoromethyl)-3,4-dihydro-2H-chromen-4-yl]urea]
220	50	CN1Cc2ccc(NC(=O)N[C@@H]3CCc4cc(F)ccc43)cc2NC1=O [Example 202, 1-[(1R)-5-fluoro-2,3-dihydro-1H-inden-1-yl]-3-(3-methyl-2-oxo-1,2,3,4-tetrahydroquinazolin-7-yl)urea]
28000	64	CN1Cc2ccc(NC(=O)N[C@H]3CC4(CCC4)Oc4ccc(F)cc43)cc2NC1=O [Example 203, 1-[(4S)-6-fluoro-3,4-dihydrospiro[chromene-2,1′-cyclobutan]-4-yl]-3-(3-methyl-2-oxo-1,2,3,4-tetrahydroquinazolin-7-yl)urea]
1600	55	CN1Cc2ccc(NC(=O)N[C@H]3CC(C)(C)Oc4ccc(F)cc43)cc2NC1=O [Example 204, 1-[(4S)-6-fluoro-2,2-dimethyl-3,4-dihydro-2H-chromen-4-yl]-3-(3-methyl-2-oxo-1,2,3,4-tetrahydroquinazolin-7-yl)urea]
400	56	CN1Cc2ccc(NC(=O)N[C@@H]3CC4(CCCC4)Oc4ccccc43)cc2NC1=O [Example 205, 1-[(4R)-3,4-dihydrospiro[chromene-2,1′-cyclopentan]-4-yl]-3-(3-methyl-2-oxo-1,2,3,4-tetrahydroquinazolin-7-yl)urea]
240	43	CN1Cc2ccc(NC(=O)N[C@@H]3C[C@](C)(CF)Oc4cc(C(F)(F)F)ccc43)cc2NC1=O [Example 206, 1-[(2R,4R)-2-(fluoromethyl)-2-methyl-7-(trifluoromethyl)-3,4-dihydro-2H-chromen-4-yl]-3-(3-methyl-2-oxo-1,2,3,4-tetrahydroquinazolin-7-yl)urea]
330	57	CN1Cc2ccc(NC(=O)N[C@@H]3C[C@](C)(C(F)F)Oc4ccccc43)cc2NC1=O [Example 207, 1-[(2R,4R)-2-(difluoromethyl)-2-methyl-3,4-dihydro-2H-chromen-4-yl]-3-(3-methyl-2-oxo-1,2,3,4-tetrahydroquinazolin-7-yl)urea]
1300	55	CN1Cc2ccc(NC(=O)N[C@@H]3CC(C)(C)Oc4nc(C(F)(F)F)ccc43)cc2NC1=O [Example 208, 1-[(4R)-2,2-dimethyl-7-(trifluoromethyl)-3,4-dihydro-2H-pyrano[2,3-b]pyridin-4-yl]-3-(3-methyl-2-oxo-1,2,3,4-tetrahydroquinazolin-7-yl)urea]
290	57	CN1Cc2ccc(NC(=O)N[C@@H]3CC(CF)(CF)Oc4cc(F)ccc43)cc2NC1=O [Example 209, 1-[(4R)-7-fluoro-2,2-bis(fluoromethyl)-3,4-dihydro-2H-chromen-4-yl]-3-(3-methyl-2-oxo-1,2,3,4-tetrahydroquinazolin-7-yl)urea]
20	55	O=C1CCc2ccc(NC(=O)N[C@@H]3CC(CF)(CF)Oc4cc(OC(F)(F)F)ccc43)cc2N1 [Example 211, 1-[(4R)-2,2-bis(fluoromethyl)-7-(trifluoromethoxy)-3,4-dihydro-2H-chromen-4-yl]-3-(2-oxo-1,2,3,4-tetrahydroquinolin-7-yl)urea]
61	34	C[C@@]1(C(F)F)C[C@@H](NC(=O)Nc2ccc3c(c2)NC(=O)CC3)c2ccc(Cl)cc2O1 [Example 212, 1-[(2S,4R)-7-chloro-2-(difluoromethyl)-2-methyl-3,4-dihydro-2H-chromen-4-yl]-3-(2-oxo-1,2,3,4-tetrahydroquinolin-7-yl)urea]
170	42	O=C1CCc2ccc(NC(=O)N[C@@H]3CC(CF)(CF)Oc4ccc(F)cc43)cc2N1 [Example 213, 1-[(4R)-6-fluoro-2,2-bis(fluoromethyl)-3,4-dihydro-2H-chromen-4-yl]-3-(2-oxo-1,2,3,4-tetrahydroquinolin-7-yl)urea]
180	40	O=C1CCc2ccc(NC(=O)N[C@@H]3CC(CF)(CF)Oc4c(F)cc(F)cc43)cc2N1 [Example 214, 1-[(4R)-6,8-difluoro-2,2-bis(fluoromethyl)-3,4-dihydro-2H-chromen-4-yl]-3-(2-oxo-1,2,3,4-tetrahydroquinolin-7-yl)urea]
60	49	O=C1CCc2ccc(NC(=O)N[C@@H]3CC(CF)(CF)Oc4ccccc43)cc2N1 [Example 215, 1-[(4R)-2,2-bis(fluoromethyl)-3,4-dihydro-2H-chromen-4-yl]-3-(2-oxo-1,2,3,4-tetrahydroquinolin-7-yl)urea]
220	50	O=C1CCc2ccc(NC(=O)N[C@@H]3CC(CF)(CF)Oc4c(F)cccc43)cc2N1 [Example 216, 1-[(4R)-8-fluoro-2,2-bis(fluoromethyl)-3,4-dihydro-2H-chromen-4-yl]-3-(2-oxo-1,2,3,4-tetrahydroquinolin-7-yl)urea]
430	50	O=C1CCc2ccc(NC(=O)N[C@H]3CC(CF)(CF)Oc4cc(Cl)ccc43)cc2N1 [Example 217, 1-[(4S)-7-chloro-2,2-bis(fluoromethyl)-3,4-dihydro-2H-chromen-4-yl]-3-(2-oxo-1,2,3,4-tetrahydroquinolin-7-yl)urea]
3600	101	CC1(C)C[C@@H](NC(=O)Nc2ccc3c(c2)NC(=O)CC3)c2cccc(C(F)(F)F)c2O1 [Example 218, 1-[(4R)-2,2-dimethyl-8-(trifluoromethyl)-3,4-dihydro-2H-chromen-4-yl]-3-(2-oxo-1,2,3,4-tetrahydroquinolin-7-yl)urea]
56	29	CC1(C)C[C@@H](NC(=O)Nc2ccc3c(c2)NC(=O)CC3)c2cccc(F)c2O1 [Example 219, 1-[(4R)-8-fluoro-2,2-dimethyl-3,4-dihydro-2H-chromen-4-yl]-3-(2-oxo-1,2,3,4-tetrahydroquinolin-7-yl)urea]
190	41	O=C1CCc2ccc(NC(=O)N[C@@H]3CCOc4ccccc43)cc2N1 [Example 220, 1-[(4R)-3,4-dihydro-2H-chromen-4-yl]-3-(2-oxo-1,2,3,4-tetrahydroquinolin-7-yl)urea]
37	44	CCC1(CC)C[C@@H](NC(=O)Nc2ccc3c(c2)NC(=O)CC3)c2ccccc2O1 [Example 223, 1-[(4R)-2,2-diethyl-3,4-dihydro-2H-chromen-4-yl]-3-(2-oxo-1,2,3,4-tetrahydroquinolin-7-yl)urea]
